{
  "source": "paper PMC6424628",
  "about": "(Neuropharmacology, 2019)",
  "key": {"[1]": {"target": "norepinephrine transporter (hNET) (Homo sapiens, UniProt P23975)", "sequence (P23975 whole entry)": "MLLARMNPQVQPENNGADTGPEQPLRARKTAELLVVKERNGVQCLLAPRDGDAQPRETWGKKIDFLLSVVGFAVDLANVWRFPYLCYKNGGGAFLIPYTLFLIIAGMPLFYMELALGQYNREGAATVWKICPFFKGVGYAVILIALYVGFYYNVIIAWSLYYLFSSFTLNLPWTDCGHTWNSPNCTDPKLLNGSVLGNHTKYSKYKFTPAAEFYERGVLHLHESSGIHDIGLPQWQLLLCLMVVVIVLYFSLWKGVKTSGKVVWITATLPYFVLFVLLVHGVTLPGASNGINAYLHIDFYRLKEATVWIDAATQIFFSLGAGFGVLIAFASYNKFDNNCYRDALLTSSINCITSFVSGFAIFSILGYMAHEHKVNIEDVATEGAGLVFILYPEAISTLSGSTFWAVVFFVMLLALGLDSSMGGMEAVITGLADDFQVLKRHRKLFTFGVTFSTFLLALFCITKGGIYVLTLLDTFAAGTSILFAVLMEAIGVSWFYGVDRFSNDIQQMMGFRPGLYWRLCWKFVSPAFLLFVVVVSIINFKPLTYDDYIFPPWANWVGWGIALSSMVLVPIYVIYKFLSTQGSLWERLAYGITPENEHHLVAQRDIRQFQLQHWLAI", "experiment": "[3H]NE uptake inhibition in COS-7 cells expressing hNET", "format": "cell-based"}, "[2]": {"target": "dopamine transporter (hDAT) (Homo sapiens, UniProt Q01959)", "sequence (Q01959 whole entry)": "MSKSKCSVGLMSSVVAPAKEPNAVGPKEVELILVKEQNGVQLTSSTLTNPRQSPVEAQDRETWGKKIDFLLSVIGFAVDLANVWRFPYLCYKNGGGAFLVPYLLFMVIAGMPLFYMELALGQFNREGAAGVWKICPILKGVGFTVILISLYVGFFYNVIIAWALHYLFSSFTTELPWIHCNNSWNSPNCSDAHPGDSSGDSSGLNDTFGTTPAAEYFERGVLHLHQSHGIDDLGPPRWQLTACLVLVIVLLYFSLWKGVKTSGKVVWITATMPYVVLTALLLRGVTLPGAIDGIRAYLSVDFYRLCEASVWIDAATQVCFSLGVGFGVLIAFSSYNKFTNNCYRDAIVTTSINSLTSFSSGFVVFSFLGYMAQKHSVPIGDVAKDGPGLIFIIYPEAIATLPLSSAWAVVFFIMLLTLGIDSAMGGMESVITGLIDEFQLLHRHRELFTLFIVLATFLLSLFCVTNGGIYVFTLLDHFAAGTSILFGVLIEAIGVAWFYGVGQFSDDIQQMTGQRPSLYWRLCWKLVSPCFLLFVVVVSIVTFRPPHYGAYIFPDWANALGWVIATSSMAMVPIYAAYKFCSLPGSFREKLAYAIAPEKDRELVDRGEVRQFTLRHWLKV", "experiment": "[3H]DA uptake inhibition in COS-7 cells expressing hDAT", "format": "cell-based"}},
  "data": [
    {"smiles": "CC(N)CCc1ccccc1Cl", "note": "(centres unmarked) [SK609]", "values": [
      {"measurement": "Ki", "setting": "[1]", "result": "0.57 ± 0.11", "unit": "µM"},
      {"measurement": "Ki", "setting": "[2]", "result": "5.7 ± 1.3", "unit": "µM"}
    ]}
  ]
}
